Assays:
[1] = molecular target: T1, human serum albumin (HSA) (Homo sapiens, UniProt P02768); settings: dose-response, 500 nM Red Mega 500, 0.2 mg/mL HSA
plasma protein = settings: cited from earlier work
[2] = molecular target: T1, human serum albumin (HSA); experiment: biochemical

T1 sequence (P02768 25-609): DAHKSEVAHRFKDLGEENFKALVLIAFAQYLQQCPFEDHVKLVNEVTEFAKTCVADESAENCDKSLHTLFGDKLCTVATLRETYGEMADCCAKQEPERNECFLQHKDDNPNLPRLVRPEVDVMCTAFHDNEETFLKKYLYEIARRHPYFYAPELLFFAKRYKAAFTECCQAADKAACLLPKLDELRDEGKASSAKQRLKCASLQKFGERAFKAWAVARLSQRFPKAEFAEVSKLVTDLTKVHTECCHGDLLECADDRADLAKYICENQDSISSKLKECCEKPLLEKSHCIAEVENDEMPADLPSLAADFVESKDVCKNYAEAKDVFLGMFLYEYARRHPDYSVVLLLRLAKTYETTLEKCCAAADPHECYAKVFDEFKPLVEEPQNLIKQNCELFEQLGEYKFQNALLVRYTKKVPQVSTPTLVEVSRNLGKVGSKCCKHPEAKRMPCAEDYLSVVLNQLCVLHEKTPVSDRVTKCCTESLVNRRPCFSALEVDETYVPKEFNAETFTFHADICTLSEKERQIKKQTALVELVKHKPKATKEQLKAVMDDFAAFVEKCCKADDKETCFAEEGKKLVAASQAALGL

For CC/C(=C(/CC)c1ccc(O)cc1)c1ccc(O)cc1 [diethylstilbestrol], the “efficacy of inhibition of HSA–Red Mega 500 binding” value [1] is listed as “weaker efficacy”, the “plasma protein binding class (low / medium / high)” value (plasma protein) is listed as “medium” and the IC50 [2] is listed as 4.4 ± 1.9 µM.
For Cc1c(OCC(F)(F)F)ccnc1C[S+]([O-])c1nc2ccccc2[nH]1 (stereo not drawn) [lansoprazole], the “plasma protein binding class (low / medium / high)” value (plasma protein) is given as “high”.
In the case of COc1ccc2[nH]c([S+]([O-])Cc3ncc(C)c(OC)c3C)nc2c1 (stereo not drawn) [omeprazole], the “plasma protein binding class (low / medium / high)” value (plasma protein) is listed as “high”.
In the case of CN1C(C(=O)Nc2ccccn2)=C(O)c2ccccc2S1(=O)=O [piroxicam], the “plasma protein binding class (low / medium / high)” value (plasma protein) is given as “high”.
